Values quoted from earlier work as cited in US20230287067A1, “HUMAN I[…] OF HEMO AND HHLA2 HUMAN ENDOGENOUS RETROVIRUSES (HERVS)” (priority 2020, published 2023).

What was measured:
HLA-A2 = details: known property of control peptide
HLA-A24 = details: known property of control peptide

Sequence	binding to HLA-A2 (HLA-A2)	binding to HLA-A24 (HLA-A24)
SYLIRALTL	not to HLA-A2	binds strongly
WLLPGTSTV [agonist peptide derived from the tumor-associated antigen Brachyury]	bind strongly	–
